Experimental data reported in PMC12186843, “Targeting GABAergic Hypofunction Associated with Schizophrenia: Identification of α1β2γ2GABA‑A Receptor Ligands with Neuroprotective and Antipsychotic Properties” (ACS Chemical Neuroscience, 2025).

Columns and labels:
PAMPA permeability assay = assay type: in vitro ADME; conditions: pH 7.4, PAMPA, PBS pH 7.4, 100 μM, zolpidem tested as tartrate, read-out: Permeability Pe ± SD
Description: PAMPA. The precoated PAMPA Plate System Gentest, obtained from Corning (Tewksbury, MA, USA), was used for the permeability study. The system includes a 96-well receiver filter plate precoated with structured phospholipid layers and a matching donor microplate. Stock solutions of the test compounds and reference drugs were prepared in PBS buffer (pH 7.4) at a final concentration of 100 μM. Each compound solution (200 μL) was added to the donor wells and incubated at room temperature for 5 h. The quantity of molecules that penetrated from the donor wells to the acceptor wells through the phospholipid membrane was determined using UPLC-MS spectrometry (Waters ACQUITY TQD system with the TQ Detector, Waters, Milford, USA) with an internal standard. Permeability coefficients (Pe, cm/s) were calculated according to the formula provided by the manufacturer.

Wistar rats = test: Prepulse inhibition (PPI) test with MK-801; assay type: in vivo, rat; conditions: i.p.
Description: All behavioral procedures were conducted using drug-naive male Wistar rats (Charles River, Sulzfeld, Germany), (n = 8/per group). Animals were housed in groups of four per standard plastic cage under controlled environmental conditions (temperature: 22 ± 1 °C, humidity: 60%, and a 12:12 light-dark cycle with lights on at 07:00 a.m.). Animals were obtained from the breeder 2 weeks prior to the initiation of behavioral procedures, during which time they were weighed and handled multiple times. Animals had ad libitum access to tap water and standard laboratory chow (Labofeed H, WPIK, Kcynia, Poland). […]
The PPI apparatus consisted of eight startle chambers (SR-LAB, San Diego Instruments, San Diego, CA, USA). […] Startle responses, reflecting the movement of animals within the cylinder following an acoustic stimulus, were measured with a piezoelectric transducer positioned beneath the frame. […]
The preliminary stimuli were followed by 60 trials of varying intensities presented in random order, with a mean intertrial interval (ITI) of 22.5 s. […] Startle amplitudes were calculated as the average response across 10 trials for each stimulation type. […] Startle responses (in manufacturer’s arbitrary units), and magnitudes of PPI (%) were analyzed with the aid of a one-way analysis of variance (ANOVA). […]

[1] = rats, i.p., 3 mg/kg, ref Mordyl, B. et al. J. Med. Chem. 2024, 67 (24), 21859–21889, cited from earlier work

For `Cc1ccc2nc(-c3ccc(F)cc3)c(CC(=O)N3CCCC3)n2c1.O=C(O)C(O)C(O)C(=O)O` [Compound 17, 2-(4-Fluorophenyl)-6-methyl-3-(2-oxo-2-(pyrrolidin-1-yl)-ethyl)imidazo[1,2-a]pyridin-1-ium 3-carboxy-2,3-dihydroxy-propanoate], the Papp at 5 h, 100 μM (PAMPA permeability assay) was greater than 4 ×10⁻⁶ cm/s, the “Effect on basic startle response” value (Wistar rats; F(3,28) = 1.66, p = 0.2) was “did not affect significantly basic startle response” and the “Effect on MK-801-induced PPI deficits” value (Wistar rats; prestimulus of 84 and 90 dB, p = 0.82 and p = 0.72) was “the effect did not reach statistical significance”. The “t0.5 Plasma” value ([1]; n=6, plasma, terminal half life) was 249 min, the “AUC0→t Brain” value ([1]; n=6, brain) was 8229 ng·min/g and the “Cmax Brain” value ([1]; n=6, brain) was 219.5 ng/g. The “MRT Brain” value ([1]; n=6, brain) was 102.5 min, the “tmax Brain” value ([1]; n=6, brain) was 5 min and the “t0.5 Brain” value ([1]; n=6, brain, terminal half life) was 653.2 min. The “AUC0→t Plasma” value ([1]; n=6, plasma) was 128271 ng·min/mL, the “MRT Plasma” value ([1]; n=6, plasma) was 50.9 min and the “tmax Plasma” value ([1]; n=6, plasma) was 5 min.
